Experimental data reported in patent US20230167073A1 (Teijin Pharma Limited, priority 2020, published 2023).

biological target: T1, Human TRPC6 (Homo sapiens, UniProt Q9Y210); test: Evaluation of TRPC6 channel inhibitory activity (1), FLIPR Calcium 5 Assay Kit, OAG stimulation (Compound Nos. 1-1293); assay type: cell-based; conditions: Human TRPC6 stably-expressing cells, OAG 30 μM, FLIPR Calcium 5 Assay Kit; read-out: Inhibitory activity (pIC50 class) (converted)
T1 construct: expressed in transfected cells
T1 sequence (Q9Y210 1-931): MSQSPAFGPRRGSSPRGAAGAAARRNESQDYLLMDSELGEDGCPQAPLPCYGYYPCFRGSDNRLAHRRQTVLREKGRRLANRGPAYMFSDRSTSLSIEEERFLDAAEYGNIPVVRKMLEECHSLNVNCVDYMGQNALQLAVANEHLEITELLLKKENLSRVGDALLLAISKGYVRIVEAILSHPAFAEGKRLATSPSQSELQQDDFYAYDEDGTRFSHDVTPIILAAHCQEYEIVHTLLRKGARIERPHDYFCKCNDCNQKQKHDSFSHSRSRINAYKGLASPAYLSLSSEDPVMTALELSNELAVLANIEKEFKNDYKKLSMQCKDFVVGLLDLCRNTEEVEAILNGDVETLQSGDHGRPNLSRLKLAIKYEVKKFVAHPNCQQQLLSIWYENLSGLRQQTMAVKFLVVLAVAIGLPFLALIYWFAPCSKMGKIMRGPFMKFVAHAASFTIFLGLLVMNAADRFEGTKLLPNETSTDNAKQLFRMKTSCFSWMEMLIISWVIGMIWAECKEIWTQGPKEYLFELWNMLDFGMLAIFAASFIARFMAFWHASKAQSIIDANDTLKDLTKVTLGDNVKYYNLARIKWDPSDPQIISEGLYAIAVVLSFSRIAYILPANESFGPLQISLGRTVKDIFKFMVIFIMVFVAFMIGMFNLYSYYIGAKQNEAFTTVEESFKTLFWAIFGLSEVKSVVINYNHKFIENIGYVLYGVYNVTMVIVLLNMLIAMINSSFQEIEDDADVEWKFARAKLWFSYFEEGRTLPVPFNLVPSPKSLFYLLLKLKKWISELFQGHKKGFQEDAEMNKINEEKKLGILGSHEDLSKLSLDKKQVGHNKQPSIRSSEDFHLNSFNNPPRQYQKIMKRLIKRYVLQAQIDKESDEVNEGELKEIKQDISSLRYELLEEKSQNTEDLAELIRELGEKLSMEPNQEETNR
Outline: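 The FLIPR signal is maximum fluorescence after 30 μM OAG minus minimum before compound, measured in a human TRPC6 stable line loaded with Calcium 5 dye. Compounds were preincubated 20 min. pIC50 came from four-parameter logistic fitting of inhibition rates and is given as symbol ranges.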

| IC50 | SMILES |
| --- | --- |
| < 0.01 µM | Cc1cc(Oc2cc(C#N)ccc2-c2cnc(CCN)cn2)cc(N2CCOCC2)n1 [compound 388, 4-[5-(2-aminoethyl)pyrazin-2-yl]-3-(2-methyl-6-morpholin-4-ylpyridin-4-yl)oxybenzonitrile] |
| 0.01 to 1 µM | Cn1nc(C2CCOCC2)cc1Oc1cc(C#N)ccc1-c1cnc(CCN)cn1 [compound 389, 4-[5-(2-aminoethyl)pyrazin-2-yl]-3-[2-methyl-5-(oxan-4-yl)pyrazol-3-yl]oxybenzonitrile] |
| < 0.01 µM | Cn1nc(-c2nccs2)cc1Oc1cc(C#N)ccc1-c1ccc(CCN)cn1 [compound 390, 4-[5-(2-aminoethyl)pyridin-2-yl]-3-[2-methyl-5-(1,3-thiazol-2-yl)pyrazol-3-yl]oxybenzonitrile] |
| < 0.01 µM | Cn1nc(-c2nccs2)cc1Oc1cc(C#N)ccc1-c1ncc(CCN)cn1 [compound 391, 4-[5-(2-aminoethyl)pyrimidin-2-yl]-3-[2-methyl-5-(1,3-thiazol-2-yl)pyrazol-3-yl]oxybenzonitrile] |
| < 0.01 µM | Cn1nc(C2CCCC2)cc1Oc1cc(C#N)ccc1-c1ccc([C@H](O)CN)cn1 [compound 392, 4-[5-[(1S)-2-amino-1-hydroxyethyl]pyridin-2-yl]-3-(5-cyclopentyl-2-methylpyrazol-3-yl)oxybenzonitrile] |
| < 0.01 µM | Cn1nc(C2CCCC2)cc1Oc1cc(C#N)ccc1-c1ncc(CCN)cn1 [compound 393, 4-[5-(2-aminoethyl)pyrimidin-2-yl]-3-(5-cyclopentyl-2-methylpyrazol-3-yl)oxybenzonitrile] |
| < 0.01 µM | Cn1nc(-c2ccccn2)cc1Oc1cc(C#N)ccc1-c1ncc(CN)cn1 [compound 394, 4-[5-(aminomethyl)pyrimidin-2-yl]-3-(2-methyl-5-pyridin-2-ylpyrazol-3-yl)oxybenzonitrile] |
| 0.01 to 1 µM | Cn1nc(-c2ccccn2)cc1Oc1cc(C#N)ccc1-c1ccc(C(C)(C)N)cn1 [compound 395, 4-[5-(2-aminopropan-2-yl)pyridin-2-yl]-3-(2-methyl-5-pyridin-2-ylpyrazol-3-yl)oxybenzonitrile] |
| < 0.01 µM | CC(N)c1ccc(-c2ccc(C#N)cc2Oc2cc(-c3ccccn3)nn2C)nc1 (stereo not shown) [compound 396, 4-[5-(1-aminoethyl)pyridin-2-yl]-3-(2-methyl-5-pyridin-2-ylpyrazol-3-yl)oxybenzonitrile] |
| 0.01 to 1 µM | Cc1cc(Oc2cc(C#N)ccc2-c2ccc(C(C)(C)N)cn2)cc(N2CCOCC2)n1 [compound 397, 4-[5-(2-aminopropan-2-yl)pyridin-2-yl]-3-(2-methyl-6-morpholin-4-ylpyridin-4-yl)oxybenzonitrile] |
| < 0.01 µM | Cc1cc(Oc2cc(C#N)ccc2-c2ccc(C(C)N)cn2)cc(N2CCOCC2)n1 (stereo not shown) [compound 398, 4-[5-(1-aminoethyl)pyridin-2-yl]-3-(2-methyl-6-morpholin-4-ylpyridin-4-yl)oxybenzonitrile] |
| < 0.01 µM | CCOc1cc(Oc2cc(C#N)ccc2-c2ccc([C@H](O)CN)cn2)n(C)n1 [compound 399, 4-[5-[(1S)-2-amino-1-hydroxyethyl]pyridin-2-yl]-3-(5-ethoxy-2-methylpyrazol-3-yl)oxybenzonitrile] |
| 0.01 to 1 µM | Cn1nc(C2CC2)cc1Oc1cc(C#N)ccc1-c1ccc(C(C)(C)N)cn1 [compound 400, 4-[5-(2-aminopropan-2-yl)pyridin-2-yl]-3-(5-cyclopropyl-2-methylpyrazol-3-yl)oxybenzonitrile] |
| < 0.01 µM | CC(N)c1ccc(-c2ccc(C#N)cc2Oc2cc(C3CC3)nn2C)nc1 (stereo not shown) [compound 401, 4-[5-(1-aminoethyl)pyridin-2-yl]-3-(5-cyclopropyl-2-methylpyrazol-3-yl)oxybenzonitrile] |
| < 0.01 µM | Cn1nc(-c2cccc(F)c2)cc1Oc1cc(C#N)ccc1-c1ncc(CCN)cn1 [compound 402, 4-[5-(2-aminoethyl)pyrimidin-2-yl]-3-[5-(3-fluorophenyl)-2-methylpyrazol-3-yl]oxybenzonitrile] |
| < 0.01 µM | Cn1nc(-c2cccc(F)c2)cc1Oc1cc(C#N)ccc1-c1ccc([C@H](O)CN)cn1 [compound 403, 4-[5-[(1S)-2-amino-1-hydroxyethyl]pyridin-2-yl]-3-[5-(3-fluorophenyl)-2-methylpyrazol-3-yl]oxybenzonitrile] |

| IC50 | SMILES |
| --- | --- |
| < 0.01 µM | Cn1nc(C(C)(C)C)cc1Oc1cc(C#N)ccc1-c1ccc([C@H](O)CN)cn1 [compound 405, 4-[5-[(1S)-2-amino-1-hydroxyethyl]pyridin-2-yl]-3-(5-tert-butyl-2-methylpyrazol-3-yl)oxybenzonitrile] |
| < 0.01 µM | Cn1nc(C(C)(C)C)cc1Oc1cc(C#N)ccc1-c1ncc([C@H](O)CN)cn1 [compound 406, 4-[5-[(1S)-2-amino-1-hydroxyethyl]pyrimidin-2-yl]-3-(5-tert-butyl-2-methylpyrazol-3-yl)oxybenzonitrile] |
| < 0.01 µM | CC(C)n1nc(C2CC2)cc1Oc1cc(C#N)ccc1-c1ccc([C@H](O)CN)cn1 [compound 407, 4-[5-[(1S)-2-amino-1-hydroxyethyl]pyridin-2-yl]-3-(5-cyclopropyl-2-propan-2-ylpyrazol-3-yl)oxybenzonitrile] |
| 0.01 to 1 µM | CC(C)n1nc(C2CC2)cc1Oc1cc(C#N)ccc1-c1ncc([C@H](O)CN)cn1 [compound 408, 4-[5-[(1S)-2-amino-1-hydroxyethyl]pyrimidin-2-yl]-3-(5-cyclopropyl-2-propan-2-ylpyrazol-3-yl)oxybenzonitrile] |
| 0.01 to 1 µM | COC(=O)C(N)c1ccc(-c2ccc(C#N)cc2Oc2cc(C)nc(N3CCOCC3)c2)nc1 (stereo not shown) [compound 409, methyl 2-amino-2-[6-[4-cyano-2-(2-methyl-6-morpholin-4-ylpyridin-4-yl)oxyphenyl]pyridin-3-yl]acetate] |
| 0.01 to 1 µM | Cc1cc(Oc2cc(C#N)ccc2-c2ccc(C(N)C(=O)O)cn2)cc(N2CCOCC2)n1 (stereo not shown) [compound 410, 2-amino-2-[6-[4-cyano-2-(2-methyl-6-morpholin-4-ylpyridin-4-yl)oxyphenyl]pyridin-3-yl]acetic acid] |
| 0.01 to 1 µM | N#Cc1ccc(-c2ncc([C@H](O)CN)cn2)c(Oc2cc(C3CC3)nn2CC(F)(F)F)c1 [compound 411, 4-[5-[(1S)-2-amino-1-hydroxyethyl]pyrimidin-2-yl]-3-[5-cyclopropyl-2-(2,2,2-trifluoroethyl)pyrazol-3-yl]oxybenzonitrile] |
| 0.01 to 1 µM | Cc1cc(Oc2cc(C#N)ccc2-c2ccc(C(N)CO)cn2)cc(N2CCOCC2)n1 (stereo not shown) [compound 412, 4-[5-(1-amino-2-hydroxyethyl)pyridin-2-yl]-3-(2-methyl-6-morpholin-4-ylpyridin-4-yl)oxybenzonitrile] |
| < 0.01 µM | Cn1nc(C(C)(C)C)cc1Oc1cc(C#N)ccc1-c1ccc(C(N)CO)cn1 (stereo not shown) [compound 413, 4-[5-(1-amino-2-hydroxyethyl)pyridin-2-yl]-3-(5-tert-butyl-2-methylpyrazol-3-yl)oxybenzonitrile] |
| > 1 µM | Cn1nc(C2CC2)cc1Oc1cc(C#N)ccc1-c1ccc2c(N)noc2c1 [compound 414, 4-(3-amino-1,2-benzoxazol-6-yl)-3-(5-cyclopropyl-2-methylpyrazol-3-yl)oxybenzonitrile] |
| > 1 µM | Cn1nc(-c2ccccc2)cc1Oc1cc(C#N)ccc1-c1ccc2c(N)noc2c1 [compound 415, 4-(3-amino-1,2-benzoxazol-6-yl)-3-(2-methyl-5-phenylpyrazol-3-yl)oxybenzonitrile] |
| > 1 µM | Cn1nc(C2CC2)cc1Oc1cc(C#N)ccc1-c1ccc(N)cn1 [compound 416, 4-(5-aminopyridin-2-yl)-3-(5-cyclopropyl-2-methylpyrazol-3-yl)oxybenzonitrile] |
| > 1 µM | Cn1nc(C2CC2)cc1Oc1cc(C#N)ccc1-c1ncc(N)cn1 [compound 417, 4-(5-aminopyrimidin-2-yl)-3-(5-cyclopropyl-2-methylpyrazol-3-yl)oxybenzonitrile] |
| 0.01 to 1 µM | Cc1cc(Oc2cc(C#N)ccc2-c2ccc(C(N)C(N)=O)cn2)cc(N2CCOCC2)n1 (stereo not shown) [compound 418, 2-amino-2-[6-[4-cyano-2-(2-methyl-6-morpholin-4-ylpyridin-4-yl)oxyphenyl]pyridin-3-yl]acetamide] |
| > 1 µM | Cc1cc(Oc2cc(C#N)ccc2-c2ncc(CCN3CCOCC3)cn2)cc(N2CCOCC2)n1 [compound 419, 3-(2-methyl-6-morpholin-4-ylpyridin-4-yl)oxy-4-[5-(2-morpholin-4-ylethyl)pyrimidin-2-yl]benzonitrile] |
